The values that follow are results of earlier work, collected in patent US20120135069A1, “NANONIZED TESTOSTERON FORMULATIONS FOR IMPROVED BIOAVAILABILITY” (PHARMASOL GMBH, priority 2009, published 2012).

The conditions of series [1]: in vivo.
The conditions of series [2]: taken orally.

Molecules are shown by their SMILES.

Consider `C[C@]12CCC(=O)C=C1CC[C@@H]1[C@@H]2CC[C@@]2(C)[C@H]1CC[C@]2(C)O` [methyltestosterone], for which the liver toxicity entry in series [1] was “very liver toxic”.

As for `C[C@]12CC[C@H]3[C@@H](CCC4=CC(=O)CC[C@@]43C)[C@@H]1CC[C@@H]2O` [testosterone], in series [2], the “fraction of the drug immediately metabolised by liver enzymes (first pass effect)” value was “about 99%”.
